With `Cn1cc(C(=O)Nc2ccsc2C2CC2C2CC2)c(C(F)F)n1` (stereo not shown) [Compound 4.34, 3-difluoromethyl-1-methyl-1H-pyrazole-4-carboxylic acid (2-bicyclo-propyl-2-yl-thiophen-3-yl)amide], the melting point was in the range of 76 to 79 °C.

The values above are taken from patent US7312179B2, “Cyclopropyl-thienyl-carboxamide as fungicides” (Syngenta Crop Protection, Inc., priority 2002, dated 2007).
